Earlier results, collected in patent US20230157963A1, “SOLID ORAL BEADS OF FUNCTIONAL INGREDIENTS AND METHODS OF MAKING THE SAME” (Nulixir Inc., priority 2021, published 2023).

Conditions: categorization at pH=7 unless stated otherwise; reference phases water and n-octanol

Row | Compound | log P
1 | COc1cc2c(c(OC)c1OC)-c1c(cc3c(c1OC)OCO3)CC(C)C(C)C2 (single isomer, unassigned; (-)) [(−)-schisandrin B] | ~4
2 | COc1cc(/C=C/c2ccccc2)oc(=O)c1 [5,6-dehydrokawain] | ~2.9
3 | COC1=CC(=O)OC(/C=C/c2ccc(OC)cc2)C1 (stereo not drawn) [5,6-dihydroyangonin] | ~2.5
4 | CC1=C(CO)C(=O)O[C@@H]([C@@H](C)[C@H]2CC[C@H]3[C@@H]4C[C@H](Cl)[C@]5(O)[C@@H](O)C=CC(=O)[C@]5(C)[C@H]4CC[C@]23C)C1 [6a-chloro-5b-hydroxywithaferin A] | ~3.2
5 | COC1=CC(=O)O[C@@H](CCc2ccc3c(c2)OCO3)C1 [7,8-dihydromethysticin] | ~2.2
6 | COc1ccc(CCc2cc(OC)cc(=O)o2)cc1 [7,8-dihydroyangonin] | ~2.9
7 | COc1cc(/C=C\c2ccc(OC)c(O)c2)oc(=O)c1 [11-hydroxyyangonin] | ~2.2
8 | COc1cc2c(c(OC)c1OC)-c1c(cc(OC)c(OC)c1OC)C[C@](C)(O)[C@@H](C)C2 [(+)-schisandrin] | ~5
9 | COc1cc2c(c(OC)c1OC)-c1c(cc(OC)c(OC)c1OC)C[C@H](C)[C@H](C)C2 [(−)-schisandrin A] | ~3.6
10 | COc1c2c(cc3c1-c1c(cc4c(c1OC)OCO4)C[C@H](C)[C@H](C)C3)OCO2 [(−)-schisandrin C] | ~3.5
11 | CC(C)=C[C@@H]1CO[C@]23C[C@]4(CO2)[C@H](CC[C@@H]2[C@@]5(C)CC[C@H](O[C@@H]6OC[C@H](O)[C@H](O[C@@H]7O[C@H](CO)[C@@H](O)[C@H](O)[C@H]7O)[C@H]6O[C@@H]6O[C@@H](CO)[C@H](O)[C@H]6O)C(C)(C)[C@@H]5CC[C@]24C)[C@H]3[C@@]1(C)O [bacopasaponin C] | ~2
12 | CC(C)=C[C@H]1C[C@](C)(O)[C@@H]2[C@H]3CC[C@@H]4[C@@]5(C)CC[C@H](O[C@@H]6OC[C@H](O)[C@H](O[C@@H]7O[C@H](CO)[C@@H](O)[C@H](O)[C@H]7O)[C@H]6O[C@@H]6O[C@@H](CO)[C@H](O)[C@H]6O)C(C)(C)[C@@H]5CC[C@@]4(C)[C@@]34CO[C@@]2(C4)O1 [bacopaside X] | ~2.2
13 | CC(C)=C[C@H]1C[C@](C)(O)[C@H]2[C@H]3CC[C@@H]4[C@@]5(C)CC[C@H](O[C@@H]6O[C@H](CO)[C@@H](O)[C@H](O[C@@H]7O[C@H](CO)[C@@H](O)[C@H](O)[C@H]7O)[C@H]6O[C@@H]6O[C@@H](CO)[C@H](O)[C@H]6O)C(C)(C)[C@@H]5CC[C@@]4(C)[C@@]34CO[C@@]2(C4)O1 [bacoside A3] | ~2.1
14 | CC(C)=CCC[C@](C)(O[C@@H]1O[C@H](CO[C@@H]2O[C@H](CO)[C@@H](O)[C@H](O)[C@H]2O)[C@@H](O)[C@H](O)[C@H]1O)[C@H]1CC[C@]2(C)[C@@H]1[C@H](O)C[C@@H]1[C@@]3(C)CC[C@H](O[C@@H]4O[C@H](CO)[C@@H](O)[C@H](O)[C@H]4O[C@@H]4O[C@H](CO)[C@@H](O)[C@H](O)[C@H]4O)C(C)(C)[C@@H]3CC[C@]12C [ginsenoside rb1] | ~−1
15 | CC(C)=CCC[C@](C)(O[C@@H]1O[C@H](CO)[C@@H](O)[C@H](O)[C@H]1O)[C@H]1CC[C@]2(C)[C@@H]1[C@H](O)C[C@@H]1[C@@]3(C)CC[C@H](O)C(C)(C)[C@@H]3[C@@H](O[C@@H]3O[C@H](CO)[C@@H](O)[C@H](O)[C@H]3O)C[C@]12C [ginsenoside rg1] | ~0.8
16 | COc1ccc(C23C=CC(O)CC2N(C)CC3)cc1OC (stereo not drawn) [mesembrenol] | ~2.4
17 | COc1ccc([C@@]23C=CC(=O)C[C@@H]2N(C)CC3)cc1OC [mesembrenone] | ~1.3
18 | COc1ccc([C@@]23CCC(=O)C[C@@H]2N(C)CC3)cc1OC [mesembrine] | ~1.5
19 | COc1nc2c(c(=O)n1C)n(C)c(=O)n2C [methylliberine] | ~−0.083
20 | CC(=O)OC1C=CC(=O)N(C(=O)CCc2ccccc2)C1 (stereo not drawn) [pipermethystine] | ~1.8
21 | COc1cc([C@H]2Oc3cc(O)c4c(=O)c(O)c(-c5ccc(O)cc5)oc4c3O[C@@H]2CO)ccc1O [rhodiolin] | ~2
22 | OC[C@H]1O[C@@H](OCCc2ccc(O)cc2)[C@H](O)[C@@H](O)[C@@H]1O [rhodosin, salidroside] | ~−1
23 | COc1cc2c(c(OC)c1OC)-c1c(cc(OC)c(OC)c1OC)C[C@](C)(O)[C@@H](C)C2 [schisandrol A] | ~3.4
24 | N#C[C@@]1(O[C@@H]2O[C@H](CO)[C@@H](O)[C@H](O)[C@H]2O)C=C[C@@H](O)C1 [tetraphyllin B] | ~−2.5
25 | (R)-kawain | ~2.7
26 | bacopaside B | ~2.8
27 | hericerin | ~6.4
28 | herinacine A | ~2.5
29 | schisandroside C | ~1.6
30 | tortuosomine | ~3
